According to publication PMC5778758, “Functional characterization of oligopeptide transporter 1 of dairy cows” (Journal of Animal Science and Biotechnology, 2018):
Peptide text beside a SMILES is read from it.

Tests used:
[1] = target: T1, bPepT1 (Bos taurus, UniProt A5D7E5); assay: Gly-Sar transport kinetics in bPepT1-transfected CHO cells; format: cell-based, bovine (dairy cows); conditions: 5 min, n = 6
T1 construct: expressed in transfected cells; host or cells: CHO cells, transient transfection with pcDNA3.1-bPepT1
T1 sequence (A5D7E5 1-707): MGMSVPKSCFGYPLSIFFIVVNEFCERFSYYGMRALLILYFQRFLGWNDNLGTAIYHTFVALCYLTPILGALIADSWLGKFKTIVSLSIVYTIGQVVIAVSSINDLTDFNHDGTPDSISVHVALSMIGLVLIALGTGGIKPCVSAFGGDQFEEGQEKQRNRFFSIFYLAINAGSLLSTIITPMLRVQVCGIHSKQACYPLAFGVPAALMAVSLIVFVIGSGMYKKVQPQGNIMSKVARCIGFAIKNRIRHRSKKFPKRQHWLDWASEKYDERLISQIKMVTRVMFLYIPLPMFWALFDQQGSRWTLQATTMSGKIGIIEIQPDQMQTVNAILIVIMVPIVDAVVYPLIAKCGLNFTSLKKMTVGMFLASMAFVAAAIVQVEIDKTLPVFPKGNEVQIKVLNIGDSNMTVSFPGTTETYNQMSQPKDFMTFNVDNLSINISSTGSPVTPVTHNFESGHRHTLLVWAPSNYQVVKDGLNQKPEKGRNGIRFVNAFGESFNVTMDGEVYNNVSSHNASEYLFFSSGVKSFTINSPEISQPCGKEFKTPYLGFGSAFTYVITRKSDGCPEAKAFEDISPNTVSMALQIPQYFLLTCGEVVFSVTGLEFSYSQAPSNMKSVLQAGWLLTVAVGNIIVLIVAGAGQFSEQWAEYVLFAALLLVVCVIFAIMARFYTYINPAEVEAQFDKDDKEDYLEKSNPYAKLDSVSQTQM
Procedure: (§1) The CHO cells were cultured in F12 Ham’s medium that contained 10% FBS. All cell cultures were maintained at 37 °C and 5% CO2 in a humidified atmosphere. The culture medium was changed every other day. One day before transfection, the CHO cells were passaged and plated onto 12-well plates at a density of 5.0 × 10^4 cells/well. The bPepT1 cDNA [19] was cloned into the pcDNA3.1 expression vector (Invitrogen, Carlsbad, USA). When the CHO cells were cultured to approximately 70–90% confluence, the cells were transfected with the pcDNA3.1-bPepT1 vector or the pcDNA3.1 vector as a control. For each well, 1 μg of DNA was mixed with 2 μL of P3000™ and 1 μL of Lipofectamine 3000 (Invitrogen, Carlsbad, USA) in 50 μL of OPTI-MEM and incubated at room temperature for 5 min. Then, the DNA-lipid complex was added into each well and the cells were transfected for 24 h.
(§2) The transport activity of bPepT1 was determined using [^3H]-Gly-Sar (3.7 × 10^4 Bq/mL), a well-known hydrolysis-resistant peptide substrate, in transiently transfected CHO cells. The transfected cells were washed three times with uptake buffer at pH 6.0 which contained 140 mmol/L NaCl, 5.4 mmol/L KCl, 0.8 mmol/L MgSO4, 1.8 mmol/L CaCl2, 5 mmol/L glucose, and 25 mmol/L MES. Then, the cells were preincubated with the buffer for 30 min at 37 °C.
For the transport time study, the transfected CHO cells were incubated with 0.02 mmol/L of [^3H]-Gly-Sar (3.7 × 10^4 Bq/mL) for various times (1, 5, 10, 20, 40, and 60 min). For the pH dependency study, the pH of the uptake buffer was adjusted to various pH (5.0, 5.5, 6.0, 6.5, 7.0, and 7.5) with HEPES/Tris or MES/Tris. For the transport kinetic study, Gly-Sar was prepared at various concentrations (0.02–10 mmol/L) with 3.7 × 10^4 Bq/mL [^3H]-Gly-Sar. […] The radioactivity of the cell lysate was measured using liquid scintillation counting (LSC, Wallac1414, Wallac Co., Turku, Finland). The total protein of the cell lysate was determined using a BCA Protein Assay Kit (Beyotime). The uptake was expressed as nmol/(mg protein • 5 min).

[2] = system: CHO cells; assay: [3H]-Gly-Sar uptake in CHO cells transfected with pcDNA3.1 control vector; format: cell-based, Chinese hamster; conditions: 0.02 mmol/L, 1–60 min, n = 5
Procedure: as §1, with “Then, the DNA-lipid complex was added into each well and the cells were transfected for 24 h.” left out
(§3) The transport activity of bPepT1 was determined using [^3H]-Gly-Sar (3.7 × 10^4 Bq/mL), a well-known hydrolysis-resistant peptide substrate, in transiently transfected CHO cells. […]
(§4) For the transport time study, the transfected CHO cells were incubated with 0.02 mmol/L of [^3H]-Gly-Sar (3.7 × 10^4 Bq/mL) for various times (1, 5, 10, 20, 40, and 60 min). […] The radioactivity of the cell lysate was measured using liquid scintillation counting (LSC, Wallac1414, Wallac Co., Turku, Finland). The total protein of the cell lysate was determined using a BCA Protein Assay Kit (Beyotime). The uptake was expressed as nmol/(mg protein • 5 min).

[3] = target: T1, bPepT1; assay: pH dependency of Gly-Sar uptake in bPepT1-transfected CHO cells; format: cell-based, bovine (dairy cows); conditions: 0.02 mmol/L [3H]-Gly-Sar; pH 5.0–7.5; 5 min; n = 4; P < 0.05
Procedure: as §1, with “Then, the DNA-lipid complex was added into each well and the cells were transfected for 24 h.” left out
as §3, §4

[4] = system: sheep PepT1; conditions: ref [14], read-out: Km for Gly-Sar, sheep; cited from earlier work
Description: (§5) These features of bPepT1 met the requirement for transporting a large number of various small peptides. The str ...

[5] = system: chicken PepT1; conditions: ref [15], read-out: Km for Gly-Sar, chickens; cited from earlier work
Description: as §5

[6] = target: T1, bPepT1; assay: Time course of [3H]-Gly-Sar uptake in transfected CHO cells; format: cell-based, bovine (dairy cows); conditions: 0.02 mmol/L; 1–60 min; 24 h after transfection with bPepT1; n = 5
Procedure: as §1, with “Then, the DNA-lipid complex was added into each well and the cells were transfected for 24 h.” left out
as §3, §4

[7] = target: T1, bPepT1; assay: Inhibition of [3H]-Gly-Sar uptake in bPepT1-transfected CHO cells; format: cell-based, bovine (dairy cows); conditions: for IC50: read-out: IC50 (inhibition of [3H]-Gly-Sar uptake), Bovine
Procedure: as §1, §2
For the transport time study, the transfected CHO cells were incubated with 0.02 mmol/L of [^3H]-Gly-Sar (3.7 × 10^4 Bq/mL) for various times (1, 5, 10, 20, 40, and 60 min). For the pH dependency study, the pH of the uptake buffer was adjusted to various pH (5.0, 5.5, 6.0, 6.5, 7.0, and 7.5) with HEPES/Tris or MES/Tris. For the transport kinetic study, Gly-Sar was prepared at various concentrations (0.02–10 mmol/L) with 3.7 × 10^4 Bq/mL [^3H]-Gly-Sar. For the inhibition study, 15 small peptides that contained essential AA at five concentrations (0.001–10 mmol/L) were added into the uptake buffer with [^3H]-Gly-Sar, and they were incubated with the CHO cells for 5 min. Then, the concentration of unlabeled peptide that inhibited 50% of [^3H]-Gly-Sar uptake (IC50) was calculated using PRISM software (GraphPad, San Diego, CA, USA). Uptake was stopped by washing with ice-cold uptake buffer. The cells were lysed by adding 0.5 mL lysis buffer that contained 1% Triton X-100, followed by incubation at 37 °C for 60 min. The radioactivity of the cell lysate was measured using liquid scintillation counting (LSC, Wallac1414, Wallac Co., Turku, Finland). The total protein of the cell lysate was determined using a BCA Protein Assay Kit (Beyotime). The uptake was expressed as nmol/(mg protein • 5 min).

[8] = system: pig PepT1; conditions: CHO cells transfected with pig PepT1 cDNA; CBD = cannot be determined; ref Klang et al. [17]; cited from earlier work
Description: Table 1 Kinetic parameters of CHO cells transfected with bovine, sheep, pig, and chicken PepT1 cDNA | column: IC50, mmol/L / Pig^d

[9] = system: chicken PepT1; conditions: CHO cells transfected with chicken PepT1 cDNA; ref Chen et al. [15]; cited from earlier work
Description: Table 1 Kinetic parameters of CHO cells transfected with bovine, sheep, pig, and chicken PepT1 cDNA | column: IC50, mmol/L / Chicken^e

[10] = system: sheep PepT1; conditions: CHO cells transfected with sheep PepT1 cDNA; ref Chen et al. [14]; cited from earlier work
Description: Table 1 Kinetic parameters of CHO cells transfected with bovine, sheep, pig, and chicken PepT1 cDNA | column: IC50, mmol/L / Sheep^c

[11] = 0.02 mmol/L [3H]-Gly-Sar (3.7 × 10^4 Bq/mL), unlabeled peptide 0.001–10 mmol/L, pH 6.0, 5 min, liquid scintillation counting, n = 4 (Fig. 6), CBD = cannot be determined

Row | Molecule | IC50 [7, 11] | also measured
1 | glycyl-sarcosine [Gly-Sar] |  | Km ([1]; Gly-Sar 0.02–10 mmol/L with 3.7 × 10^4 Bq/mL [3H]-Gly-Sar, 37 °C preincubation, Michaelis–Menten, mean ± SEM): 940 ± 60 µM; maximum velocity (Vmax) ([1]; Gly-Sar 0.02–10 mmol/L with 3.7 × 10^4 Bq/mL [3H]-Gly-Sar, Michaelis–Menten, mean ± SEM): 20.80 ± 1.74 nmol/(mg protein • 5 min); Gly-Sar concentration at which transport was saturated ([1]; Gly-Sar 0.02–10 mmol/L): 5 mmol/L; [3H]-Gly-Sar uptake in control-vector cells [2]: only marginal, and it was much lower than in CHO cells that were transfected with the bPepT1 expression vector; pH dependency of [3H]-Gly-Sar uptake [3]: pH-dependent and greater at pH 6.5 and 7.0 than at pH 5.5 and 6.0 which was greater than at pH 5.0 and 7.5; Km [4]: 1000 ± 100 µM; Km [5]: 2600 ± 300 µM; Time course of [3H]-Gly-Sar uptake [6]: increased rapidly and linearly in the first 10 min and reached a plateau subsequently
2 | CSCC[C@H](NC(=O)CN)C(=O)O [Gly-Met] | 32 µM | 
3 | NCCCC[C@H](NC(=O)CN)C(=O)O [Gly-Lys] (H-Gly-Lys-OH) | 78 µM | 
4 | CSCC[C@H](NC(=O)[C@@H](N)CCSC)C(=O)O [Met-Met] (H-Met-Met-OH) | 96 µM | 
5 | CSCC[C@H](N)C(=O)N[C@@H](CCC(=O)O)C(=O)O [Met-Glu] (H-Met-Glu-OH) | 23 µM | 
6 | CC(C)C[C@H](N)C(=O)NCC(=O)NCC(=O)O [Leu-Gly-Gly] (H-Leu-Gly-Gly-OH) | 2070 µM | 
7 | NCCCC[C@H](N)C(=O)N[C@@H](Cc1ccccc1)C(=O)O [Lys-Phe] | 90 µM | 
8 | N[C@@H](Cc1c[nH]c2ccccc12)C(=O)N[C@@H](Cc1ccccc1)C(=O)O [Trp-Phe] (H-Trp-Phe-OH) | 14 µM | 
9 | NCC(=O)O [Gly] |  | Inhibition of [3H]-Gly-Sar uptake (in words) ([7]; 0.02 mmol/L [3H]-Gly-Sar, pH 6.0, 5 min): not inhibited

More lines, main results first:

Row | IC50 [7, 11] | Molecule | also measured
10 | 80 µM | CSCC[C@H](N)C(=O)N[C@@H](CC(C)C)C(=O)O [Met-Leu] (H-Met-Leu-OH) | 
11 | 6040 µM | CSCC[C@H](NC(=O)[C@H](CCSC)NC(=O)CNC(=O)[C@@H](N)CCSC)C(=O)O [Met-Gly-Met-Met] (H-MGMM-OH) | 
12 | 50 µM | CSCC[C@H](N)C(=O)N[C@@H](CC(C)C)C(=O)N[C@@H](Cc1ccccc1)C(=O)O [Met-Leu-Phe] | 
13 | 9650 µM | NCCCC[C@H](NC(=O)[C@@H](N)CCCCN)C(=O)O [Lys-Lys] | 
14 | 58 µM | CSCC[C@H](N)C(=O)NCC(=O)O [Met-Gly] (H-Met-Gly-OH) | 
15 | 32 µM | CSCC[C@H](NC(=O)[C@@H](N)CCCCN)C(=O)O [Lys-Met] | 
16 | 20 µM | CSCC[C@H](N)C(=O)N[C@@H](CCCCN)C(=O)O [Met-Lys] (H-Met-Lys-OH) | 
17 | > 2070 µM | NCCCC[C@H](NC(=O)[C@H](Cc1c[nH]c2ccccc12)NC(=O)[C@@H](N)CCCCN)C(=O)O [Lys-Trp-Lys] (H-Lys-Trp-Lys-OH; N-terminus and C-terminus assumed) | IC50 [8]: 2200 µM; IC50 (inhibition of [3H]-Gly-Sar uptake), Bovine [7, 11]: CBD; Favorability as substrate / affinity for bPepT1 (in words) ([7]; judged from IC50 values): less favorable substrates for bPepT1; IC50 [9]: 5900 µM; IC50 [10]: 3730 µM
